Measurements published in patent US20130266636A1, “METHODS FOR BLOCKING CELL PROLIFERATION AND TREATING DISEASES AND CONDITIONS RESPONSIVE TO CELL GROWTH INHIBITION” (THE REGENTS OF THE UNIVERSITY OF CALIFORNIA, priority 2010, published 2013).

How the values were obtained:
Assay in all cases: NCI-60 panel growth inhibition
Assay type in all cases: cell-based
NCI/ADR-RES = details: Homo sapiens, Ovarian Cancer, mutated RAS No, mutated BRAF No
Description: (§1) Table 1 summarizes KG5's effect in 60 NCI cancer cell lines: the NCI-60 panel showing the half maximal growth inhibitory concentration of KG5 and the RAS and BRAF status in 60 human cancer cell lines.

PC-3 = details: Homo sapiens, Prostate Cancer, mutated RAS No, mutated BRAF No
Description: as §1

SK-MEL-5 = details: Homo sapiens, Melanoma, mutated RAS No, mutated BRAF Yes
Description: as §1

786-0 = details: Homo sapiens, Renal Cancer, mutated RAS No, mutated BRAF No
Description: as §1

OVCAR-4 = details: Homo sapiens, Ovarian Cancer, mutated RAS No, mutated BRAF No
Description: as §1

MOLT-4 = details: Homo sapiens, Leukemia, mutated RAS Yes, mutated BRAF No
Description: as §1

HS 578T = details: Homo sapiens, Breast Cancer, mutated RAS Yes, mutated BRAF No
Description: as §1

OVCAR-3 = details: Homo sapiens, Ovarian Cancer, mutated RAS No, mutated BRAF No
Description: as §1

SK-MEL-2 = details: Homo sapiens, Melanoma, mutated RAS Yes, mutated BRAF No
Description: as §1

OVCAR-8 = details: Homo sapiens, Ovarian Cancer, mutated RAS No, mutated BRAF No
Description: as §1

LOX IMVI = details: Homo sapiens, Melanoma, mutated RAS No, mutated BRAF Yes
Description: as §1

KM12 = details: Homo sapiens, Colon Cancer, mutated RAS No, mutated BRAF No
Description: as §1

HCC-2998 = details: Homo sapiens, Colon Cancer, mutated RAS No, mutated BRAF No
Description: as §1

OVCAR-5 = details: Homo sapiens, Ovarian Cancer, mutated RAS Yes, mutated BRAF No
Description: as §1

SF-268 = details: Homo sapiens, CNS Cancer, mutated RAS No, mutated BRAF No
Description: as §1

MCF7 = details: Homo sapiens, Breast Cancer, mutated RAS No, mutated BRAF No
Description: as §1

MDA-MB-231/ATCC = details: Homo sapiens, Breast Cancer, mutated RAS Yes, mutated BRAF Yes
Description: as §1

SF-539 = details: Homo sapiens, CNS Cancer, mutated RAS No, mutated BRAF No
Description: as §1

HCT-15 = details: Homo sapiens, Colon Cancer, mutated RAS Yes, mutated BRAF Yes
Description: as §1

K-562 = details: Homo sapiens, K562; Leukemia; mutated RAS No; mutated BRAF No
Description: as §1

T-47D = details: Homo sapiens, T47D; Breast Cancer; mutated RAS Yes; mutated BRAF No
Description: as §1

UACC-62 = details: Homo sapiens, Melanoma, mutated RAS No, mutated BRAF Yes
Description: as §1

SNB-75 = details: Homo sapiens, CNS Cancer, mutated RAS No, mutated BRAF No
Description: as §1

TK-10 = details: Homo sapiens, Renal Cancer, mutated RAS No, mutated BRAF No
Description: as §1

UO-31 = details: Homo sapiens, Renal Cancer, mutated RAS No, mutated BRAF No
Description: as §1

BT-549 = details: Homo sapiens, Breast Cancer, mutated RAS No, mutated BRAF No
Description: as §1

MDA-MB-468 = details: Homo sapiens, Breast Cancer, mutated RAS No, mutated BRAF No
Description: as §1

EKVX = details: Homo sapiens, NSC Lung Cancer, mutated RAS No, mutated BRAF No
Description: as §1

NCI-H226 = details: Homo sapiens, NSC Lung Cancer, mutated RAS No, mutated BRAF No
Description: as §1

MDA-MB-435 = details: Homo sapiens, Melanoma, mutated RAS No, mutated BRAF Yes
Description: as §1

ACHN = details: Homo sapiens, Renal Cancer, mutated RAS No, mutated BRAF No
Description: as §1

COLO 205 = details: Homo sapiens, Colon Cancer, mutated RAS Yes, mutated BRAF No
Description: as §1

HT29 = details: Homo sapiens, HT-29; Colon Cancer; mutated RAS No; mutated BRAF Yes
Description: as §1

A498 = details: Homo sapiens, Renal Cancer, mutated RAS No, mutated BRAF No
Description: as §1

SK-MEL-28 = details: Homo sapiens, Melanoma, mutated RAS No, mutated BRAF Yes
Description: as §1

RXF 393 = details: Homo sapiens, Renal Cancer, mutated RAS No, mutated BRAF No
Description: as §1

NCI-H460 = details: Homo sapiens, NSC Lung Cancer, mutated RAS Yes, mutated BRAF No
Description: as §1

U251 = details: Homo sapiens, U-251; CNS Cancer; mutated RAS No; mutated BRAF No
Description: as §1

SR = details: Homo sapiens, Leukemia, mutated RAS No, mutated BRAF No
Description: as §1

DU-145 = details: Homo sapiens, Prostate Cancer, mutated RAS No, mutated BRAF No
Description: as §1

HCT-116 = details: Homo sapiens, Colon Cancer, mutated RAS Yes
Description: as §1

CAKI-1 = details: Homo sapiens, Renal Cancer, mutated RAS No, mutated BRAF No
Description: as §1

With `CSc1nc(N)cc(Oc2ccc(-c3nnc(Nc4cccc(C(F)(F)F)c4)[nH]3)cc2)n1` [KG5] as the compound, how does the GI50 (NCI/ADR-RES) read?
Its GI50 is 437 nM.

What about the GI50 (PC-3) of the same compound?
Its GI50 is 282 nM.

And the GI50 (SK-MEL-5)?
The GI50 was 389 nM.

And the GI50 (786-0)?
The GI50 was 490 nM.

What about the GI50 (OVCAR-4) of the same compound?
The GI50 was 575 nM.

And the GI50 (MOLT-4)?
Its GI50 is 912 nM.

And the GI50 (HS 578T)?
Its GI50 is 437 nM.

What about the GI50 (OVCAR-3) of the same compound?
The GI50 was 251 nM.

What about the GI50 (SK-MEL-2) of the same compound?
Its GI50 is 589 nM.

And the GI50 (OVCAR-8)?
The GI50 was 479 nM.

What about the GI50 (LOX IMVI) of the same compound?
The GI50 was 851 nM.

And the GI50 (KM12)?
The GI50 was 468 nM.

And the GI50 (HCC-2998)?
The GI50 was 1410 nM.

What about the GI50 (OVCAR-5) of the same compound?
The GI50 was 1550 nM.

What about the GI50 (SF-268) of the same compound?
Its GI50 is 912 nM.

What about the GI50 (MCF7) of the same compound?
Its GI50 is 355 nM.

And the GI50 (MDA-MB-231/ATCC)?
The GI50 was 1480 nM.

And the GI50 (SF-539)?
Its GI50 is 347 nM.

What about the GI50 (HCT-15) of the same compound?
Its GI50 is 490 nM.

And the GI50 (K-562)?
Its GI50 is 513 nM.

And the GI50 (T-47D)?
The GI50 was 347 nM.

What about the GI50 (UACC-62) of the same compound?
The GI50 was 501 nM.

And the GI50 (SNB-75)?
Its GI50 is 245 nM.

What about the GI50 (TK-10) of the same compound?
The GI50 was 692 nM.

And the GI50 (UO-31)?
The GI50 was 513 nM.

And the GI50 (BT-549)?
Its GI50 is 708 nM.

And the GI50 (MDA-MB-468)?
Its GI50 is 191 nM.

And the GI50 (EKVX)?
Its GI50 is 501 nM.

What about the GI50 (NCI-H226) of the same compound?
The GI50 was 1780 nM.

And the GI50 (MDA-MB-435)?
Its GI50 is 195 nM.

What about the GI50 (ACHN) of the same compound?
Its GI50 is 851 nM.

What about the GI50 (COLO 205) of the same compound?
Its GI50 is 407 nM.

And the GI50 (HT29)?
Its GI50 is 363 nM.

What about the GI50 (A498) of the same compound?
The GI50 was 468 nM.

What about the GI50 (SK-MEL-28) of the same compound?
The GI50 was 1580 nM.

What about the GI50 (RXF 393) of the same compound?
The GI50 was 166 nM.

What about the GI50 (NCI-H460) of the same compound?
The GI50 was 363 nM.

What about the GI50 (U251) of the same compound?
The GI50 was 468 nM.

And the GI50 (SR)?
The GI50 was 398 nM.

And the GI50 (DU-145)?
Its GI50 is 457 nM.

What about the GI50 (HCT-116) of the same compound?
The GI50 was 457 nM.

What about the GI50 (CAKI-1) of the same compound?
Its GI50 is 417 nM.
